Test system: Cell-based prion protein 5' UTR reporter, plate reader
Assay: prion protein 5' UTR mRNA inhibitors – cell-based, plate reader, cherry-picked samples, dose response (AID 504539)

| SMILES | AC50 [nM] |
| --- | --- |
| CC(=O)O[C@H]1C(=O)[C@@]2(C)C([C@H](OC(=O)c3ccccc3)[C@]3(O)C[C@H](OC(=O)[C@H](O)[C@@H](NC(=O)c4ccccc4)c4ccccc4)C(C)=C1C3(C)C)[C@]1(OC(C)=O)CO[C@@H]1C[C@H]2O (stereo not given in full) | 160 |
| CC(=O)OC(C)(C)/C=C/C(=O)[C@](C)(O)[C@H]1[C@H](O)C[C@@]2(C)[C@@H]3CC=C4[C@H](C[C@H](O)C(=O)C4(C)C)[C@]3(C)C(=O)C[C@]12C | < 38 |
| Nc1nc(F)nc2c1ncn2[C@@H]1O[C@H](CO)[C@@H](O)[C@H]1O | 483 |
| COc1ccc(/C=N/NC(=O)c2cc3c(OC)ccc(OC)c3[nH]2)cc1O | 1340 |
| Cc1ccc(-c2cc3c(N=O)c4ccccc4c-3n[nH]2)cc1 | 438 |
| COc1cc2c(c(OC)c1OC)-c1ccc(SC)c(=O)cc1C(NC(=O)c1ccccc1)CC2 (stereo not given) | < 38 |
| OCC1OC(n2ccc3c(NO)ncnc32)C(O)C1O (stereo not given) | 189 |
| COc1cc(SC)ccc1C(=O)Nc1nc(C)cs1 | 216 |
| Cc1ccc(C(=O)O/N=C(\N)c2ccccn2)cc1 | 213 |
| COC(=O)c1cc(C(=O)N2CCN(c3cccc(Cl)c3)CC2)cc([N+](=O)[O-])c1 | 470 |
| CN1CCc2c(sc(NC(=O)c3ccc([N+](=O)[O-])o3)c2C(N)=O)C1 | 972 |
| CC(=O)OC(C)(C)/C=C/C(=O)C(C)(O)C1[C@H](O)C[C@@]2(C)C3CC=C4C(CC[C@@H](O)C4(C)C)[C@]3(CO)C(=O)C[C@]12C (stereo not given in full) | 85 |
| CCCC[C@@H](C)C[C@@H](C)C(=O)N(C)[C@@H](CC(C)C)C(=O)N[C@H](C(=O)N(C)[C@H](C(=O)N1C[C@@H](O)C[C@H]1C(=O)N1C(=O)C=C[C@@H]1C)C(C)C)C(C)OC(C)=O (stereo not given in full) | < 38 |
| Cc1[nH]nc2ccc(-c3cncc(OC[C@@H](N)Cc4c[nH]c5ccccc45)c3)cc12 | 335 |
| c1ccc(-c2noc(-c3ccc4ccccc4c3)n2)nc1 | 158 |
| CC12CCC(O)CC1CCC1C2CCC2(C)C(C3=CC(=O)OC3)CCC12O (stereo not given) | 230 |
| CCCOC(=O)c1[nH]c2c(c1C)C(=O)CC(c1cccs1)C2 (stereo not given) | 132 |
| COc1ccc(CC2NCC(O)C2OC(C)=O)cc1 (stereo not given) | 168 |
| Cc1ccc(NC(=O)O/N=C/c2c(C)nn(C(C)(C)C)c2C)cc1Cl | 270 |
| Cc1c(C)c2ccc(OCC(=O)Nc3ccccn3)c(C)c2oc1=O | 64 |

| SMILES | AC50 [nM] |
| --- | --- |
| Cc1nc(SCC(=O)Nc2nccs2)c(C#N)c(C)c1C | 991 |
| Cc1cc(C(=O)COC(=O)c2ccccc2O)c(C)n1Cc1cccs1 | 83 |
| C[C@H]1[C@@H](OS(=O)(=O)O)C[C@@H]2C[C@H]([C@@H](O)c3cc(=O)[nH]c(=O)[nH]3)NC3=NC[C@H]1N32 | 2560 |
| CC(C)(C)c1ccc(C(=O)Nc2ccc(CC(=O)O)cc2)o1 | 312 |
| C/C(=N\NC(=O)c1n[nH]c2c1CCC2)c1cccs1 | 401 |
| Cc1ccc(C(=O)/C=C/Nc2ccccn2)cc1 | 233 |
| COc1ccc(OC)c(NS(=O)(=O)c2ccc(N3CCCC3=O)cc2)c1 | 880 |
| COc1cc(OC)cc(-c2cc3nc(C)c(CCC(=O)O)c(C)n3n2)c1 | 1610 |
| COc1ccc(OC)c(-c2nnc3n2N=C(c2ccc(OC)c(OC4CCOC4)c2)CS3)c1 (stereo not given) | 554 |
| C=CC[n+]1c(-c2ccc(C)cc2)csc1Nc1ccc(NC(C)=O)cc1 | 3620 |
| Cc1ccc2oc(/N=C(\N)NC(=O)C(C)(C)C)nc2c1 | < 38 |
| CCOC(=O)C(C)Oc1cccc2c(=O)n(CC(=O)NCc3ccc(F)cc3)ccc12 (stereo not given) | 486 |
| CC(C)(C)c1ccc(Oc2ccc(N)cc2)cc1 | 248 |
| Cc1cc(C)c(C#N)c(SCc2nnc(-c3ccccc3)o2)n1 | 1990 |
| O=C(Nc1cc2ccccc2oc1=O)c1ccccc1 | 696 |
| Cc1ccc(NC(=O)c2cc3ccccc3oc2=O)cc1S(=O)(=O)N(C)C | < 38 |
| O=c1c2ccccc2oc2cc(C#CC3(O)CCCCC3)ccc12 | 1840 |
| CCCN1C=CC(=C2C(=O)c3ccccc3C2=O)C=C1 | 169 |
| COc1cccc2c1C(=O)c1c(O)c3c(c(O)c1C2=O)CC(O)(C(=O)CO)CC3OC1CC(N(C)C)C(O)C(C)O1 (stereo not given) | 130 |
| Clc1ccccc1/C=C/c1nc(-c2ccccn2)no1 | 540 |

From PubChem BioAssay AID504539 (Broad Institute, 2011)
